ChEMBL document CHEMBL1201862, “PubChem BioAssay data set” (2004)
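Five compound concentrations were applied to cells in 96-well plates for 48 hours; endpoints were derived by simple linear interpolation of the resulting dose-response curve. GI50: concentration for 50% inhibition of growth.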 Active and inactive are the calls of the source. Rule as the data show it: active = GI50 up to about 1.1 µM and inactive = higher.

Columns and labels:
Test in all cases: DTP human tumour cell line panel, 48 h
786-0 = test system: 786-0
A498 = test system: A498
A549 = test system: A549
ACHN = test system: ACHN
BT-549 = test system: BT-549
CCRF-CEM = test system: CCRF-CEM
COLO 205 = test system: COLO 205
DU-145 = test system: DU-145
EKVX = test system: EKVX
HCC 2998 = test system: HCC 2998
HCT-116 = test system: HCT-116
HCT-15 = test system: HCT-15
HOP-62 = test system: HOP-62
HOP-92 = test system: HOP-92
HT-29 = test system: HT-29
Hs-578T = test system: Hs-578T
IGROV-1 = test system: IGROV-1
K562 = test system: K562
KM12 = test system: KM12
LOX IMVI = test system: LOX IMVI
M14 = test system: M14
MDA-MB-231 = test system: MDA-MB-231
MDA-MB-435 = test system: MDA-MB-435
MDA-N = test system: MDA-N
MOLT-4 = test system: MOLT-4
Malme-3M = test system: Malme-3M
NCI-H226 = test system: NCI-H226
NCI-H23 = test system: NCI-H23
NCI-H460 = test system: NCI-H460
NCI-H522 = test system: NCI-H522
NCI/ADR-RES = test system: NCI/ADR-RES
OVCAR-3 = test system: OVCAR-3
OVCAR-4 = test system: OVCAR-4
OVCAR-5 = test system: OVCAR-5
OVCAR-8 = test system: OVCAR-8
PC-3 = test system: PC-3
RPMI-8226 = test system: RPMI-8226
RXF 393 = test system: RXF 393
SF-268 = test system: SF-268
SF-295 = test system: SF-295
SF-539 = test system: SF-539
SK-MEL-28 = test system: SK-MEL-28
SK-MEL-2 = test system: SK-MEL-2
SK-MEL-5 = test system: SK-MEL-5
SK-OV-3 = test system: SK-OV-3
SN12C = test system: SN12C
SNB-19 = test system: SNB-19
SNB-75 = test system: SNB-75
SR = test system: SR
SW-620 = test system: SW-620
T47D = test system: T47D
TK-10 = test system: TK-10
U-251 = test system: U-251
UACC-257 = test system: UACC-257
UACC-62 = test system: UACC-62
UO-31 = test system: UO-31
CAKI-1 = test system: CAKI-1
HL-60 = test system: HL-60

Measured: GI50

CC(=O)ON(C(C)=O)c1ccc(-c2nc3ccccc3s2)cc1
active: A498 0.315 µM | IGROV-1 0.791 µM | NCI-H226 0.276 µM
inactive: 786-0 30.2 µM | A549 26.3 µM | ACHN 19.4 µM | BT-549 37.6 µM | CCRF-CEM 7.35 µM | COLO 205 18.7 µM | DU-145 26.2 µM | EKVX 13.1 µM | HCC 2998 17.4 µM | HCT-116 24.5 µM | HOP-62 22 µM | HOP-92 34.7 µM | HT-29 24 µM | Hs-578T 21.2 µM | K562 41 µM | KM12 15.1 µM | LOX IMVI 25.5 µM | M14 26.4 µM | MDA-MB-231 25 µM | MDA-MB-435 26.9 µM | MDA-N 27.2 µM | MOLT-4 13.3 µM | Malme-3M 14.7 µM | NCI-H23 26 µM | NCI-H460 28.4 µM | NCI-H522 15.1 µM | NCI/ADR-RES 16.3 µM | OVCAR-3 22.1 µM | OVCAR-4 38.7 µM | OVCAR-5 34.2 µM | OVCAR-8 21.2 µM | PC-3 50.6 µM | RPMI-8226 18.3 µM | RXF 393 35.3 µM | SF-268 24.7 µM | SF-295 30.1 µM | SF-539 15.3 µM | SK-MEL-28 31.8 µM | SK-MEL-2 24.8 µM | SK-MEL-5 24.5 µM | SK-OV-3 31.3 µM | SN12C 40.7 µM | SNB-19 34.7 µM | SNB-75 24.5 µM | SR 25.6 µM | SW-620 26.2 µM | T47D 17.4 µM | TK-10 34.4 µM | U-251 24.2 µM | UACC-257 37 µM | UACC-62 20.9 µM | UO-31 14.6 µM
24.4 µM: HCT-15

O=C(c1cccnc1)N1N=C(c2ccc3c(c2)OCO3)CC1(O)c1cc(F)c(Cl)cc1Cl (stereo not given)
18 µM: HCT-15
inactive: 786-0 18.6 µM | A549 28.6 µM | ACHN 17.7 µM | BT-549 20.9 µM | CAKI-1 28.6 µM | CCRF-CEM 19.1 µM | COLO 205 15.1 µM | DU-145 20.9 µM | EKVX 20.5 µM | HCT-116 16.3 µM | HL-60 20.2 µM | HOP-62 18 µM | HOP-92 20.7 µM | HT-29 17.7 µM | Hs-578T 33 µM | IGROV-1 11.4 µM | K562 27.9 µM | KM12 26.9 µM | LOX IMVI 16.4 µM | M14 31.8 µM | MDA-MB-231 17.3 µM | MDA-MB-435 27 µM | MDA-N 29.3 µM | MOLT-4 15.3 µM | Malme-3M 23.4 µM | NCI-H226 16.2 µM | NCI-H23 24.9 µM | NCI-H460 17.4 µM | NCI-H522 17 µM | NCI/ADR-RES 18.5 µM | OVCAR-3 11 µM | OVCAR-4 22.4 µM | OVCAR-5 22.3 µM | OVCAR-8 18.8 µM | PC-3 21.5 µM | RPMI-8226 27.2 µM | RXF 393 12.7 µM | SF-268 19.9 µM | SF-295 19.1 µM | SF-539 16.7 µM | SK-MEL-28 25.5 µM | SK-MEL-2 20.7 µM | SK-MEL-5 15 µM | SK-OV-3 27.9 µM | SN12C 18.5 µM | SNB-19 32.6 µM | SNB-75 15.2 µM | SR 14.7 µM | SW-620 23.8 µM | T47D 3.59 µM | TK-10 39.1 µM | U-251 16.7 µM | UACC-257 21.1 µM | UO-31 17.3 µM

Cc1cc(S(=O)(=O)O)ccc1/N=N/c1ccc(/N=N/c2c(O)ccc3ccccc23)c(C)c1
32.1 µM: HCT-15
inactive: 786-0 21.3 µM | A549 50.4 µM | ACHN 92.9 µM | BT-549 > 100 µM | CAKI-1 53.2 µM | CCRF-CEM 18.1 µM | COLO 205 > 100 µM | DU-145 > 100 µM | EKVX 82 µM | HCT-116 34.2 µM | HOP-62 > 100 µM | HOP-92 46.7 µM | HT-29 70.3 µM | Hs-578T > 100 µM | IGROV-1 54.7 µM | K562 > 100 µM | KM12 31.6 µM | LOX IMVI 26.9 µM | M14 > 100 µM | MDA-MB-231 20.5 µM | MDA-MB-435 37.9 µM | MDA-N 50.1 µM | MOLT-4 49.1 µM | Malme-3M > 100 µM | NCI-H226 85.3 µM | NCI-H23 33.2 µM | NCI-H522 26 µM | NCI/ADR-RES > 100 µM | OVCAR-3 39.4 µM | OVCAR-4 51.2 µM | OVCAR-5 > 100 µM | OVCAR-8 49.8 µM | PC-3 > 100 µM | RPMI-8226 > 100 µM | RXF 393 > 100 µM | SF-268 55.3 µM | SF-295 94.8 µM | SK-MEL-28 67.3 µM | SK-MEL-2 > 100 µM | SK-MEL-5 > 100 µM | SK-OV-3 > 100 µM | SN12C 89.7 µM | SNB-19 > 100 µM | SNB-75 41.6 µM | SW-620 42.3 µM | T47D > 100 µM | TK-10 74 µM | U-251 36.4 µM | UACC-257 > 100 µM | UACC-62 28.8 µM | UO-31 80.4 µM

NC(CCP(=O)(O)O)C(=O)O (stereo not given)
> 100 µM: HCT-15
inactive: 786-0 > 100 µM | A498 > 100 µM | A549 > 100 µM | ACHN > 100 µM | BT-549 > 100 µM | CAKI-1 > 100 µM | CCRF-CEM > 100 µM | EKVX > 100 µM | HCT-116 > 100 µM | HL-60 > 100 µM | HOP-62 > 100 µM | HOP-92 > 100 µM | HT-29 > 100 µM | Hs-578T > 100 µM | IGROV-1 > 100 µM | K562 > 100 µM | KM12 > 100 µM | LOX IMVI > 100 µM | M14 > 100 µM | MDA-MB-231 > 100 µM | MDA-MB-435 > 100 µM | MDA-N > 100 µM | MOLT-4 > 100 µM | Malme-3M > 100 µM | NCI-H226 > 100 µM | NCI-H23 > 100 µM | NCI-H460 > 100 µM | NCI-H522 > 100 µM | NCI/ADR-RES > 100 µM | OVCAR-3 > 100 µM | OVCAR-4 > 100 µM | OVCAR-5 > 100 µM | OVCAR-8 > 100 µM | PC-3 > 100 µM | RPMI-8226 > 100 µM | RXF 393 > 100 µM | SF-268 > 100 µM | SF-295 > 100 µM | SK-MEL-28 > 100 µM | SK-MEL-2 > 100 µM | SK-MEL-5 > 100 µM | SN12C > 100 µM | SNB-19 > 100 µM | SR > 100 µM | SW-620 > 100 µM | T47D > 100 µM | TK-10 > 100 µM | U-251 > 100 µM | UACC-257 > 100 µM | UACC-62 > 100 µM | UO-31 > 100 µM
